Measurements published in patent publication US10905729B1, “Formulations and methods for wound treatment” (Sorush, LLC, priority 2011, dated 2021).

Experiment: Chemical analysis of the extract for the antibiotics (HPLC-MS / MS)
Assay type: physicochemical
Details: added at 0.003% each; analysed about two weeks after formation of the extract
Protocol: 10 grams of dried Lawsonia inermis leaves (www.ETSY.com) were placed in a beaker and 100 ml of distilled water were added. The mixture was stirred for 2 hours at room temperature to obtain an aqueous Lawsonia inermis extract designated as a 10% w/w or w/v extract. […] The Lawsonia inermis extract was analyzed for antibiotic activity and for the presence of the antibiotics about two weeks after formation of the extract.
A chemical analysis was performed on the extract. […] Polymyxin B analysis was performed on a Thermo Finnigan LCQ MS.

Substance	antibiotic not detected in the extract at a level of [nanograms/ml]
Gentamicin [Gentamycin]	< 15.0
Polymyxin B	< 960
